Laboratory results: the supplement of paper PMC9402605

Key:
Experiment in all cases: number of L4/adult animals relative to DMSO control (development) (fraction of control); higher = more growth (less toxic); extreme values may be limits of the assay
Conditions in all cases: concentration unit: uM
CB1072 unc-29(e1072) = system: CB1072 unc-29(e1072)
Protocol: (§1)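 About 20 L1 larvae of wild-type or anthelmintic-resistant C. elegans strains were grown in 96-well plates with HB101 E. coli and a compound dilution series (0.6% DMSO). The number of L4/adult animals was counted after 72 h (day 7 for the slow-growing PR1152) and normalised to DMSO wells. Values are the mean of 3 biological replicates, each done in technical triplicate.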

CB3474 ben-1(e1880) = system: CB3474 ben-1(e1880)
Protocol: as §1

CF1038 daf-16(mu86) = system: CF1038 daf-16(mu86)
Protocol: as §1

[1] = system: DA1316 avr-14;avr-15;glc-1
Protocol: as §1

N2 = system: N2
Protocol: as §1

NM1968 slo-1(js379) = system: NM1968 slo-1(js379)
Protocol: as §1

PR1152 cha-1(p1152) = system: PR1152 cha-1(p1152)
Protocol: as §1

RB2119 acr-23(ok2804) = system: RB2119 acr-23(ok2804)
Protocol: as §1

RP2674 mev-1(tr393) = system: RP2674 mev-1(tr393)
Protocol: as §1

VC731 unc-63(ok1075) = system: VC731 unc-63(ok1075)
Protocol: as §1

O=C(NCCc1ncc(C(F)(F)F)cc1Cl)c1ccccc1C(F)(F)F [fluopyram]
number of L4/adult animals
Conditions | CB1072 unc-29(e1072) | CB3474 ben-1(e1880) | CF1038 daf-16(mu86) | N2 | NM1968 slo-1(js379) | PR1152 cha-1(p1152) | RB2119 acr-23(ok2804) | RP2674 mev-1(tr393) | VC731 unc-63(ok1075) | [1]
concentration: 0.09375 | 0.915 | 1.01 | 1.02 | 1.06 | 0.984 | 0.97 | 1.01 | 1.1 | 0.961 | 0.958
concentration: 0.1875 | 0.705 | 0.812 | 0.957 | 0.953 | 0.617 | 0.284 | 0.981 | 1.14 | 0.651 | 0.854
concentration: 0.375 | 0.689 | 0.674 | 0.451 | 0.712 | 0.0215 | 0 | 0.372 | 1.01 | 0.305 | 0.176
concentration: 0.75 | 0 | 0 | 0 | 0 | 0 | 0 | 0 | 0.999 | 0 | 0
concentration: 1.5 | 0 | 0 | 0 | 0 | 0 | 0 | 0 | 1.06 | 0 | 0
concentration: 3 | 0 | 0 | 0 | 0 | 0 | 0 | 0 | 1.03 | 0 | 0
concentration: 6 | 0 | 0 | 0 | 0 | 0 | 0 | 0 | 0.91 | 0 | 0

c1ccc([C@H]2CN3CCSC3=N2)cc1 [levamisole]
number of L4/adult animals
Conditions | CB1072 unc-29(e1072) | CB3474 ben-1(e1880) | CF1038 daf-16(mu86) | N2 | NM1968 slo-1(js379) | PR1152 cha-1(p1152) | RB2119 acr-23(ok2804) | RP2674 mev-1(tr393) | VC731 unc-63(ok1075) | [1]
concentration: 9.375 | 1.09 | 0.906 | 0.606 | 0.964 | 0.888 | 0.329 | 0.95 | 0.783 | 1 | 0.774
concentration: 18.75 | 1.07 | 0.964 | 0.91 | 0.973 | 0.984 | 0.207 | 0.812 | 0.942 | 1.03 | 1.01
concentration: 37.5 | 1.1 | 1.06 | 1.01 | 1.05 | 0.95 | 0.0255 | 0.632 | 1.04 | 0.996 | 0.984
concentration: 75 | 1.01 | 0.914 | 0.827 | 1.08 | 0.856 | 0.00498 | 0.47 | 0.914 | 1.09 | 0.871
concentration: 150 | 1.08 | 0.627 | 0.678 | 0.535 | 0.595 | 0 | 0.13 | 0.352 | 1.07 | 0.487
concentration: 300 | 0.988 | 0.403 | 0.335 | 0.218 | 0.0768 | 0 | 0.0225 | 0.0923 | 1.02 | 0.106
concentration: 600 | 1.04 | 0.0551 | 0.0591 | 0.0242 | 0 | 0 | 0 | 0.029 | 1.04 | 0.00556
